According to patent publication US10766869B2, “Triazoles for the treatment of demyelinating dieases” (Vertex Pharmaceuticals Incorporated, priority 2015, dated 2020):

Tested on: primary rat mixed cortical cells
Experiment: In vitro myelination assay (MBP positive myelin strands, fold myelin pixels above background)
Type: cell-based
Conditions: Rattus norvegicus, relative to baseline of no added compound; for fold induction at 1 µM: 1.0 μM compound, read-out: Fold myelin pixels above background, 1.0 μM; for fold induction at 10 µM: 10.0 μM compound, read-out: Fold myelin pixels above background, 10.0 μM
How it was run: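 Myelination read as total MBP-immunopositive strand pixels per well, imaged at 10× after fixation on day 14 and expressed relative to untreated wells, at 1.0 and 10.0 μM. Cells: dissociated postnatal day 1 rat cortex, cultured two weeks with compound, re-dosed at days 6 and 10.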

Row | SMILES | fold induction at 1 µM | fold induction at 10 µM
1 | Cc1cc(Nc2ncn(-c3cc(F)cc(F)c3)n2)cc(C2(O)CCN(C)C2)c1 (stereo not shown) [Compound 242, 3-[3-[[1-(3,5-difluorophenyl)-1,2,4-triazol-3-yl]amino]-5-methyl-phenyl]-1-methyl-pyrrolidin-3-ol] | 10 to 100 | ≤ 1
2 | Cc1cc(Nc2ncn(-c3cc(F)cc(F)c3)n2)cc(N2CCN(C3CCOCC3)CC2)c1 [Compound 243, 1-(3,5-difluorophenyl)-N-[3-methyl-5-(4-tetrahydropyran-4-ylpiperazin-1-yl)phenyl]-1,2,4-triazol-3-amine] | 100 to 1000 | ≤ 1
3 | CC1CCN(c2cc(Nc3ncn(-c4cc(F)cc(F)c4)n3)cc(C3CC3)n2)CC1 [Compound 244, 2-cyclopropyl-N-[1-(3,5-difluorophenyl)-1,2,4-triazol-3-yl]-6-(4-methyl-1-piperidyl)pyridin-4-amine] | 1 to 10 | 10 to 100
4 | COc1cc(OC)cc(-n2cnc(Nc3cc(C4CC4)nc(N4CC[C@@H](F)C4)c3)n2)c1 [Compound 245, 2-cyclopropyl-N-[1-(3,5-dimethoxyphenyl)-1,2,4-triazol-3-yl]-6-[(3R)-3-fluoropyrrolidin-1-yl]pyridin-4-amine] | 1 to 10 | 10 to 100
5 | COCC1CCN(c2cc(Cl)cc(Nc3ncn(-c4ccccc4)n3)c2)CC1 [Compound 246, N-[3-chloro-5-[4-(methoxymethyl)-1-piperidyl]phenyl]-1-phenyl-1,2,4-triazol-3-amine] | 10 to 100 | 100 to 1000
6 | Cc1cc(Nc2ncn(-c3ccccc3)n2)cc(C2CCCN(C3COC3)C2)c1 (stereo not shown) [Compound 248, N-[3-methyl-5-[1-(oxetan-3-yl)-3-piperidyl]phenyl]-1-phenyl-1,2,4-triazol-3-amine] | 100 to 1000 | 1 to 10
7 | Cc1cc(Nc2ncn(-c3ccnc(F)c3)n2)cc(NC2CCN(C3COC3)C2)c1 (stereo not shown) [Compound 249, N3-[1-(2-fluoro-4-pyridyl)-1,2,4-triazol-3-yl]-5-methyl-N1-[1-(oxetan-3-yl)pyrrolidin-3-yl]benzene-1,3-diamine] | 10 to 100 | ≤ 1
8 | c1cncc(-n2cnc(Nc3cc(C4CCOCC4)cc(C4CCOCC4)c3)n2)c1 [Compound 250, N-[3,5-di(tetrahydropyran-4-yl)phenyl]-1-(3-pyridyl)-1,2,4-triazol-3-amine] | 100 to 1000 | 10 to 100
9 | c1ccc(-n2cnc(Nc3cc(C4CCOCC4)cc(N4CCOCC4)c3)n2)cc1 [Compound 251, N-(3-morpholino-5-tetrahydropyran-4-yl-phenyl)-1-phenyl-1,2,4-triazol-3-amine] | 100 to 1000 | 1 to 10
10 | Cc1cc(Nc2ncn(-c3cccc(OC(F)(F)F)c3)n2)cc(N2CCN(C3COC3)CC2)c1 [Compound 252, N-[3-methyl-5-[4-(oxetan-3-yl)piperazin-1-yl]phenyl]-1-[3-(trifluoromethoxy)phenyl]-1,2,4-triazol-3-amine] | 1000 to 10000 | 10 to 100
11 | COCCN1CCN(c2cc(C)cc(Nc3ncn(-c4ccccc4)n3)c2)CC1 [Compound 253, N-[3-[4-(2-methoxyethyl)piperazin-1-yl]-5-methyl-phenyl]-1-phenyl-1,2,4-triazol-3-amine] | 1000 to 10000 | 10 to 100
12 | COc1cc(-n2cnc(Nc3cc(C)cc(N4CCN(C5COC5)CC4)c3)n2)ncn1 [Compound 254, 1-(6-methoxypyrimidin-4-yl)-N-[3-methyl-5-[4-(oxetan-3-yl)piperazin-1-yl]phenyl]-1,2,4-triazol-3-amine] | ≤ 1 | 100 to 1000
13 | CCc1cc(F)cc(-n2cnc(Nc3cc(C)cc(N4CCN(C)CC4)c3)n2)c1 [Compound 255, 1-(3-ethyl-5-fluoro-phenyl)-N-[3-methyl-5-(4-methylpiperazin-1-yl)phenyl]-1,2,4-triazol-3-amine] | 100 to 1000 | 100 to 1000
14 | CN1CCN(c2cc(Nc3ncn(-c4cccc(F)c4)n3)cc(C(F)(F)F)c2)CC1 [Compound 257, 1-(3-fluorophenyl)-N-[3-(4-methylpiperazin-1-yl)-5-(trifluoromethyl)phenyl]-1,2,4-triazol-3-amine] | 100 to 1000 | ≤ 1
15 | COc1cc(Nc2ncn(-c3cccc(F)c3)n2)cc(N2CCN(C3COC3)CC2)c1 [Compound 258, 1-(3-fluorophenyl)-N-[3-methoxy-5-[4-(oxetan-3-yl)piperazin-1-yl]phenyl]-1,2,4-triazol-3-amine] | 100 to 1000 | 1 to 10
16 | Cc1cc(Nc2ncn(-c3ccccc3)n2)cc(N2CCNC(C)C2)c1 (stereo not shown) [Compound 259, N-[3-methyl-5-(3-methylpiperazin-1-yl)phenyl]-1-phenyl-1,2,4-triazol-3-amine] | 1000 to 10000 | ≤ 1

Row | SMILES | fold induction at 1 µM | fold induction at 10 µM
17 | Cc1cc(Nc2ncn(-c3ccccc3)n2)cc(C2CCN(C3COC3)C2)c1 (stereo not shown) [Compound 260, N-[3-methyl-5-[1-(oxetan-3-yl)pyrrolidin-3-yl]phenyl]-1-phenyl-1,2,4-triazol-3-amine] | 1000 to 10000 | ≤ 1
18 | Cc1cc(Nc2ncn(-c3cc(F)cc(F)c3)n2)cc(C2CCN(C3CC3)CC2)c1 [Compound 261, N-[3-(1-cyclopropyl-4-piperidyl)-5-methyl-phenyl]-1-(3,5-difluorophenyl)-1,2,4-triazol-3-amine] | 10 to 100 | 10 to 100
19 | Cc1cc(Nc2ncn(-c3cncc(Cl)c3)n2)cc(N2CCN(C)CC2)c1 [Compound 262, 1-(5-chloro-3-pyridyl)-N-[3-methyl-5-(4-methylpiperazin-1-yl)phenyl]-1,2,4-triazol-3-amine] | 10 to 100 | 100 to 1000
20 | Cc1cc(Nc2ncn(-c3ccc(F)c(F)c3)n2)cc(N2CCN(C)CC2)n1 [Compound 263, N-[1-(3,4-difluorophenyl)-1,2,4-triazol-3-yl]-2-methyl-6-(4-methylpiperazin-1-yl)pyridin-4-amine] | 10 to 100 | 100 to 1000
21 | CCc1cc(Nc2ncn(-c3cc(F)cc(F)c3)n2)cc(N2CCN(C3(C)COC3)CC2)c1 [Compound 264, 1-(3,5-difluorophenyl)-N-[3-ethyl-5-[4-(3-methyloxetan-3-yl)piperazin-1-yl]phenyl]-1,2,4-triazol-3-amine] | 10 to 100 | 10 to 100
22 | Cc1cc(Nc2ncn(-c3ccc(F)c(F)c3)n2)cc(N2CCOCC2)n1 [Compound 265, N-[1-(3,4-difluorophenyl)-1,2,4-triazol-3-yl]-2-methyl-6-morpholino-pyridin-4-amine] | 100 to 1000 | 100 to 1000
23 | CC(=O)N1CCCC(c2cc(C)cc(Nc3ncn(-c4cc(F)cc(F)c4)n3)c2)C1 (stereo not shown) [Compound 266, 1-[3-[3-[[1-(3,5-difluorophenyl)-1,2,4-triazol-3-yl]amino]-5-methyl-phenyl]-1-piperidyl]ethanone] | 10 to 100 | 100 to 1000
24 | CNC1CCN(c2cc(C)cc(Nc3ncn(-c4cc(F)cc(F)c4)n3)c2)C1 (stereo not shown) [Compound 267, 1-(3,5-difluorophenyl)-N-[3-methyl-5-[3-(methylamino)pyrrolidin-1-yl]phenyl]-1,2,4-triazol-3-amine] | 10 to 100 | ≤ 1
25 | Fc1cc(Nc2ncn(-c3cc(F)cc(F)c3)n2)cc(C2CCN(C3COC3)C2)c1 (stereo not shown) [Compound 268, 1-(3,5-difluorophenyl)-N-[3-fluoro-5-[1-(oxetan-3-yl)pyrrolidin-3-yl]phenyl]-1,2,4-triazol-3-amine] | 100 to 1000 | 1000 to 10000
26 | Cc1cc(Nc2ncn(-c3ccc(F)cc3)n2)cc(N2CCCC2)c1 [Compound 269, 1-(4-fluorophenyl)-N-(3-methyl-5-pyrrolidin-1-yl-phenyl)-1,2,4-triazol-3-amine] | 1 to 10 | 10 to 100
27 | Cc1cc(Nc2ncn(-c3cccnc3)n2)cc(C2COC2)c1 [Compound 270, N-[3-methyl-5-(oxetan-3-yl)phenyl]-1-(3-pyridyl)-1,2,4-triazol-3-amine] | 100 to 1000 | 100 to 1000
28 | Cc1cc(Nc2ncn(-c3cncc(C)n3)n2)cc(N2CCN(C3COC3)CC2)c1 [Compound 271, N-[3-methyl-5-[4-(oxetan-3-yl)piperazin-1-yl]phenyl]-1-(6-methylpyrazin-2-yl)-1,2,4-triazol-3-amine] | ≤ 1 | ≤ 1
29 | Cc1cc(Nc2ncn(-c3cccc(F)c3)n2)cc(N2CCCC2)c1 [Compound 272, 1-(3-fluorophenyl)-N-(3-methyl-5-pyrrolidin-1-yl-phenyl)-1,2,4-triazol-3-amine] | 10 to 100 | ≤ 1
30 | Cc1cc(Nc2ncn(-c3ccccc3)n2)cc(C2CCN(CC(F)F)C2)c1 (stereo not shown) [Compound 273, N-[3-[1-(2,2-difluoroethyl)pyrrolidin-3-yl]-5-methyl-phenyl]-1-phenyl-1,2,4-triazol-3-amine] | 1000 to 10000 | ≤ 1
31 | CCN1CCN(c2cc(C)cc(Nc3ncn(-c4ccccc4)n3)c2)CC1 [Compound 274, N-[3-(4-ethylpiperazin-1-yl)-5-methyl-phenyl]-1-phenyl-1,2,4-triazol-3-amine] | 1000 to 10000 | 1 to 10
32 | Cc1cc(Nc2ncn(-c3cccnc3)n2)cc(N2CCN(C3COC3)CC2)c1 [Compound 275, N-[3-methyl-5-[4-(oxetan-3-yl)piperazin-1-yl]phenyl]-1-(3-pyridyl)-1,2,4-triazol-3-amine] | 10 to 100 | 100 to 1000
